Assay results from ChEMBL document CHEMBL4840311, “Discovery of novel nitrogenous heterocyclic-containing quinoxaline-1,4-di-N-oxides as potent activator of autophagy in M.tb-infected macrophages” (Eur J Med Chem, 2021).
In brackets after ≈: the same amount, converted by molar mass.

Columns and labels:
[1] = system: Mycobacterium tuberculosis; experiment: Antimycobacterial activity against Mycobacterium tuberculosis H37Rv ATCC 27294 assessed as inhibition of bacterial growth measured after 5 days by microplate alamar blue assay; assay type: functional; details: H37Rv ATCC 27294, 120 h, time 5 day
Vero = experiment: Cytotoxicity against African green monkey Vero cells assessed as reduction in cell viability measured after 72 hrs by MTT assay; assay type: cell-based; details: Chlorocebus sabaeus
[2] = Selectivity index, ratio of IC50 for African green monkey Vero cells measured after 72 hrs by MTT assay to MIC for antimycobacterial activity against Mycobacterium tuberculosis H37Rv ATCC 27294 assessed as inhibition of bacterial growth measured after 5 days by microplate alamar blue assay; assay type: toxicity; details: read-out: Selectivity Index
J774.A1 = experiment: Cytotoxicity against mouse J774.A1 cells assessed as reduction in cell viability measured after 72 hrs by MTT assay; assay type: cell-based; details: J774.A1, 72 h
[3] = system: Mycobacterium tuberculosis; experiment: Antimycobacterial activity against Mycobacterium tuberculosis H37Rv infected in mouse J774.A1 cells assessed as log reduction of bacterial growth at 1X to 40X MIC measured after 4 days by visual colony counting analysis; assay type: functional; details: time 4 day
[4] = system: Mycobacterium tuberculosis; experiment: Antimycobacterial activity against Mycobacterium tuberculosis H37Rv infected in mouse J774.A1 cells assessed as log reduction of bacterial growth at 1X MIC measured after 1 days by visual colony counting analysis; assay type: functional; details: time 1 day
[5] = system: Mycobacterium tuberculosis; experiment: Antimycobacterial activity against Mycobacterium tuberculosis H37Rv infected in mouse J774.A1 cells assessed as log reduction of bacterial growth at 10X MIC measured after 1 days by visual colony counting analysis; assay type: functional; details: time 1 day

| SMILES | MIC [1] [µg/mL] | IC50 (Vero) [µM] | selectivity ratio at 72 hrs [2] | IC50 (J774.A1) [µM] | log(activity) [3] | log(activity) [4] | log(activity) [5] |
| --- | --- | --- | --- | --- | --- | --- | --- |
| Cc1c(C(=O)OCc2ccccc2)[n+]([O-])c2cc(F)c(-n3ccnc3)cc2[n+]1[O-] | 0.25 (≈ 0.634 µM) | 107 | 169 | 77.7 | 2.15 | 0.04 | 0.18 |
| CC(=O)c1c(C)[n+]([O-])c2ccccc2[n+]1[O-] [MEQUINDOX] | 8 (≈ 36.7 µM) |  |  |  |  |  |  |
| CCCC(=O)c1c(C)[n+]([O-])c2cc(F)c(F)cc2[n+]1[O-] | 8 (≈ 28.3 µM) |  |  |  |  |  |  |
| CCOC(=O)c1c(C)[n+]([O-])c2cc(-n3ccnc3)c(F)cc2[n+]1[O-] | 0.25 (≈ 0.752 µM) | 129 | 172 | 77.7 |  |  |  |
| CCOC(=O)c1c(C)[n+]([O-])c2cc(-n3cncn3)c(F)cc2[n+]1[O-] | 0.125 (≈ 0.375 µM) | 155 | 412 | 77.7 |  |  |  |
| Cc1c(C(=O)OC(C)C)[n+]([O-])c2cc(F)c(-n3ccnc3)cc2[n+]1[O-] | 2 (≈ 5.78 µM) | 112 | 19.5 | 77.7 |  |  |  |
| CCOC(=O)c1c(C)[n+]([O-])c2cc(F)c(F)cc2[n+]1[O-] | 1 (≈ 3.52 µM) | 30.6 | 8.7 |  |  |  |  |
| CC(=O)c1c(C)[n+]([O-])c2cc(F)c(F)cc2[n+]1[O-] | 2 (≈ 7.87 µM) | 22.4 | 2.8 |  |  |  |  |
| CC(=O)c1c(C)[n+]([O-])c2cc(-n3ccnc3)c(F)cc2[n+]1[O-] | 0.5 (≈ 1.65 µM) | 95.7 | 46.4 | 77.7 |  |  |  |
| CCOC(=O)c1c(C(F)(F)F)[n+]([O-])c2cc(N3CCNCC3)c(F)cc2[n+]1[O-] | 0.5 (≈ 1.24 µM) | 31.3 | 25.3 |  |  |  |  |
| Cc1c(C(=O)OC(C)C)[n+]([O-])c2cc(-n3ccnc3)c(-n3ccnc3)cc2[n+]1[O-] | 8 (≈ 20.3 µM) |  |  |  |  |  |  |
| CCOC(=O)c1c(C(F)(F)F)[n+]([O-])c2cc(-n3cncn3)c(F)cc2[n+]1[O-] | 0.25 (≈ 0.646 µM) | 35.4 | 54.8 |  |  |  |  |
| CCOC(=O)c1c(C)[n+]([O-])c2cc(N3CCOCC3)c(F)cc2[n+]1[O-] | 64 (≈ 182 µM) |  |  |  |  |  |  |
| CCCC(=O)c1c(C)[n+]([O-])c2cc(N3CCNCC3)c(F)cc2[n+]1[O-] | 16 (≈ 45.9 µM) |  |  |  |  |  |  |
| CC(=O)c1c(C)[n+]([O-])c2cc(N3CCNCC3)c(F)cc2[n+]1[O-] | 4 (≈ 12.5 µM) |  |  |  |  |  |  |
| Cc1c(C(=O)OC(C)C)[n+]([O-])c2cc(F)c(F)cc2[n+]1[O-] | 16 (≈ 53.6 µM) |  |  |  |  |  |  |
